According to ChEMBL document CHEMBL1201862, “PubChem BioAssay data set” (2004):
Activity calls are given as the source filed them.

Tests used:
Bcl-2-like protein 10 = target: T1, Bcl-2-like protein 10 (Homo sapiens, UniProt Q9HD36); experiment: displacers of TR3 peptide from Bcl-B, primary screen, selectivity assay for Bfl-1 inhibitor project, biochemical, fluorescence polarization, FITC-TR3 peptide (AID 748);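 also: fluorescence polarization from a fluorescein-labelled TR3 peptide binding purified Bcl-B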
T1 sequence (Q9HD36 whole entry): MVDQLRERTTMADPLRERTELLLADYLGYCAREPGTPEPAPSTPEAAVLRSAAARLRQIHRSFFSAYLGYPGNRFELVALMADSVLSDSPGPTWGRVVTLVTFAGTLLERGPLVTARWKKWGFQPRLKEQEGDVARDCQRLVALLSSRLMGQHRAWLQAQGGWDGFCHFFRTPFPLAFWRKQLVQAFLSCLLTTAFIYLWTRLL

[1] = target: Glutathione-S-transferase (Schistosoma japonicum, UniProt Q26513); experiment: biotin-GST/anti-GST TR-FRET signal inhibitors, dose response, artefact control for Vif-APOBEC3G degradation inhibitor project, biochemical (AID 1117362); assay type: functional
[2] = inhibitors of Vif binding to APOBEC3G peptide, primary screen, biochemical, TR-FRET, GST-Vif 1-94, biotin-A3G peptide, dose response retest (AID 1117319); assay type: functional;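 also: TR-FRET signal of purified GST-Vif binding a biotinylated A3G peptide; inhibitors lower the FRET signal by blocking Vif and A3G binding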
[3] = Vero cell cytotoxicity, dose response, cytotoxicity control for Vif-APOBEC3G degradation inhibitor project, Vero cells (AID 1117358); assay type: functional; settings: Human immunodeficiency virus 1, Vero
Caspase-6 = Caspase-6 (Homo sapiens, UniProt P55212); experiment: human caspase-6 inhibitors, dose response, biochemical, VEID-R110 fluorescence, cherry-pick (AID 720632)
[4] = target: T2, Sentrin-specific protease 8 (Homo sapiens, UniProt Q96LD8); assay type: functional;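 also: luminescence read-out of SENP8 inhibition, dose-response confirmation following an ultra-high-throughput screen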
T2 sequence (Q96LD8 whole entry): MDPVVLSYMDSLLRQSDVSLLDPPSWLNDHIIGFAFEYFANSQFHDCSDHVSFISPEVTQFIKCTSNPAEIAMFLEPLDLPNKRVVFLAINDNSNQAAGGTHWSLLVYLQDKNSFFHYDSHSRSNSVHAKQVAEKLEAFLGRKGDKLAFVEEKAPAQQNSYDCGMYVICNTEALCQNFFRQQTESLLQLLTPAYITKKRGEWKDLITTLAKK

Caspase-3 = target: T3, Caspase-3 (Homo sapiens, UniProt P42574); assay type: functional;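 also: Dose-response selectivity test against caspase-3 for candidate inhibitors of sentrin-specific proteases (SENPs)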
T3 sequence (P42574 whole entry): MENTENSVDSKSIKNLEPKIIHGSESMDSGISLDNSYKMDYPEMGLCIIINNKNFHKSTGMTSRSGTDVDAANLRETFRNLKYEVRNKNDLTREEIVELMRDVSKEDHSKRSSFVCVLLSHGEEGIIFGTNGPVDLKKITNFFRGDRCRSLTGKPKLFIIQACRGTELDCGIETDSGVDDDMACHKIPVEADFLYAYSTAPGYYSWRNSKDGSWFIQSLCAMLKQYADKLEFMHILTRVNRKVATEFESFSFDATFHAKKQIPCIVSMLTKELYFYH

Caspase-7 = Caspase-7 (Homo sapiens, UniProt P55210); experiment: human caspase-7 inhibitors, dose response, selectivity assay for caspase-6 inhibitor project, biochemical, DEVD-R110 fluorescence, cherry-pick (AID 743295)
[5] = target: T4, Sentrin-specific protease 7 (Homo sapiens, UniProt Q9BQF6); assay type: functional;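 also: Luminescence-based dose-response confirmation of ultra-high-throughput screening hits, measuring inhibition of SENP7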
T4 sequence (Q9BQF6 whole entry): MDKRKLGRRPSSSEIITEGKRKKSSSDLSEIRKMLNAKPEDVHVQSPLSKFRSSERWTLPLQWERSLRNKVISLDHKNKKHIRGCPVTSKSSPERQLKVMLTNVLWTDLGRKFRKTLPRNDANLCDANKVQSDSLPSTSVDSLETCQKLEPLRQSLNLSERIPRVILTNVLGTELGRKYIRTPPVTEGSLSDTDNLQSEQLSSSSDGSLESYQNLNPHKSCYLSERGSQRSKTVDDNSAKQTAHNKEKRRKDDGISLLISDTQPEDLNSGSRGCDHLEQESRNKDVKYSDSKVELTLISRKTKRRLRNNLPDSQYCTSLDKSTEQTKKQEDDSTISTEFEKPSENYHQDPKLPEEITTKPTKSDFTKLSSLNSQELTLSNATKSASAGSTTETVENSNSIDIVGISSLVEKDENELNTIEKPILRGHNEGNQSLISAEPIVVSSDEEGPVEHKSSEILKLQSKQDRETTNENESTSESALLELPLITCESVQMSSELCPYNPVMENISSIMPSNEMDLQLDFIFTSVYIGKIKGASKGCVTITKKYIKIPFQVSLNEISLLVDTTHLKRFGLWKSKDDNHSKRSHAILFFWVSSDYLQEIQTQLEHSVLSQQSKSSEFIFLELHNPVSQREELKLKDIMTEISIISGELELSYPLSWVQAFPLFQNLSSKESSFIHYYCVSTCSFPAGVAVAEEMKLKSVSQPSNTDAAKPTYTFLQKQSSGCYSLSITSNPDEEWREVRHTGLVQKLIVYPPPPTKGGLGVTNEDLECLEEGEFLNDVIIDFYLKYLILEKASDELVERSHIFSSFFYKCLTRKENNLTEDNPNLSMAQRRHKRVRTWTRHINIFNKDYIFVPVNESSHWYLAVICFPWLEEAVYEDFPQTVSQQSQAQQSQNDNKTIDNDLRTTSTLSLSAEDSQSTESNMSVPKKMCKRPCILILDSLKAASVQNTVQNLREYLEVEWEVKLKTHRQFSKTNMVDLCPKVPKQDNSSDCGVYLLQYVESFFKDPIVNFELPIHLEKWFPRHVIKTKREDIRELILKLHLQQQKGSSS

Caspase-8 = Caspase-8 (Homo sapiens, UniProt Q14790); experiment: caspase-8 inhibition counter-screen, dose response, selectivity assay for caspase-6 inhibitor project, biochemical, Z-IETD-R110 fluorescence, cherry-picked samples (AID 743294)
[6] = target: T5, Sentrin-specific protease 6 (Homo sapiens, UniProt Q9GZR1); assay type: functional;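 also: Luminescence-based dose-response confirmatory assay of SENP6 inhibition, following up an ultra-high-throughput screen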
T5 sequence (Q9GZR1 whole entry): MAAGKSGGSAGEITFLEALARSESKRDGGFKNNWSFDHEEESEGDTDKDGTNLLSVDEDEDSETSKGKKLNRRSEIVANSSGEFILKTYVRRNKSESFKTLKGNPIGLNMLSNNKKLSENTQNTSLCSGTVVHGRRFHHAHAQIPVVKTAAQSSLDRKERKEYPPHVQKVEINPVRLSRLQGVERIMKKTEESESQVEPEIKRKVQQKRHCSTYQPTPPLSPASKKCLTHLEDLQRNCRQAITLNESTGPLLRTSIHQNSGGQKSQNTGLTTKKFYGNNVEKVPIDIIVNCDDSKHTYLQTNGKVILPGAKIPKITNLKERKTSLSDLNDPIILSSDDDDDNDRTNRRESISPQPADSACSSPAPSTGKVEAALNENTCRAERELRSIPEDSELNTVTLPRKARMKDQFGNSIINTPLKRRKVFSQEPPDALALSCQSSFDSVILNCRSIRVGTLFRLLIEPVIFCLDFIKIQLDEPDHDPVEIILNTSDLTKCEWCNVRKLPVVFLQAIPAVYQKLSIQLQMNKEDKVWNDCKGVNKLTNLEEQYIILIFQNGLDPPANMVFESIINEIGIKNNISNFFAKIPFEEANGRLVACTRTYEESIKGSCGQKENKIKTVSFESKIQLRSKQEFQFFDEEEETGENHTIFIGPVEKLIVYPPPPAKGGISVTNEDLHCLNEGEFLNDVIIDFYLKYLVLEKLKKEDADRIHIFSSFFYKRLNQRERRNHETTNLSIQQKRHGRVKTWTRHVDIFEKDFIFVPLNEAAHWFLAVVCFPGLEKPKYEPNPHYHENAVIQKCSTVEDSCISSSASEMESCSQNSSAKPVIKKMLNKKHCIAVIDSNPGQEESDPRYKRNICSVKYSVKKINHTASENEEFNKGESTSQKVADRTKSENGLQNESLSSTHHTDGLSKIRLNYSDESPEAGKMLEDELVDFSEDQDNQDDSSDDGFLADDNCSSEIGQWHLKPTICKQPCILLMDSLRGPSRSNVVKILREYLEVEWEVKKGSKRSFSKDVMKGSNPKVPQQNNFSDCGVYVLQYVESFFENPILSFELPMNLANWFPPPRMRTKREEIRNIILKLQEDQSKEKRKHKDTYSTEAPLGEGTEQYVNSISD

[7] = target: T6, Mitochondrial peptide methionine sulfoxide reductase (Bos taurus, UniProt P54149); experiment: Absorbance-based biochemical high throughput dose response assay for activators of Methionine sulfoxide reductase A (MsrA).; assay type: functional
T6 sequence (P54149 whole entry): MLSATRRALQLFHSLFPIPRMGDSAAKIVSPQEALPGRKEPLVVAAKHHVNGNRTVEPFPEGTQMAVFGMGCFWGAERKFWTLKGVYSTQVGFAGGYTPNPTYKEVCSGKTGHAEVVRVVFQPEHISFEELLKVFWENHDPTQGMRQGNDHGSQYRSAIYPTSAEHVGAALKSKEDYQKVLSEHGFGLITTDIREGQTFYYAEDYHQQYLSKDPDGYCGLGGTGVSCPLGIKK

[8] = A2780 ovarian cancer cell cytotoxicity, dose response, cytotoxicity control, plate reader, dry powder samples (AID 743046); assay type: functional, cell-based
Paired box protein Pax-8 = Paired box protein Pax-8 (Homo sapiens, UniProt Q06710); experiment: inhibitors of PAX8-driven TPO luciferase reporter, dose response, RMG-I cells, cherry-pick (AID 687027); assay type: functional, cell-based;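 also: luciferase reporter driven by Pax8 target thyroperoxidase promoter measured by SteadyGlo luminescence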
[9] = cytotoxicity in OVCAR8 ovarian cancer cells, dose response, PAX8 project, cell-based, plate reader, dry powder samples (AID 743197); assay type: functional; settings: OVCAR-8
[10] = NIH:OVCAR-3 ovarian cancer cell cytotoxicity, dose response, PAX8 inhibitor project, plate reader, dry powder samples (AID 743044); assay type: functional, cell-based
[11] = non-specific cell cytotoxicity, dose response, cytotoxicity control for PAX8 inhibitor project, plate reader, dry powder samples (AID 743021); assay type: functional, cell-based
[12] = IOSE-T80 ovarian epithelial cell cytotoxicity, dose response, cytotoxicity control for PAX8 inhibitor project, plate reader, dry powder samples (AID 743045); assay type: functional, cell-based
[13] = Late stage assay provider results from the probe development effort to identify inhibitors of the Plasmodium falciparum M18 Aspartyl Aminopeptidase (M18AAP): radiolabel-based cell-based dose response assay to identify compounds that inhibit P. falciparum growth in RBCs, Set 2..; assay type: functional
[14] = CTGF mRNA reduction under YAP1 overexpression, dose response, mechanism study for YAP1 pathway inhibitor project, DLD1 cells, RT-qPCR, cherry-pick (AID 1053127); assay type: functional, cell-based; settings: DLD-1

Paired box protein Pax-8, sequence (Q06710 whole entry): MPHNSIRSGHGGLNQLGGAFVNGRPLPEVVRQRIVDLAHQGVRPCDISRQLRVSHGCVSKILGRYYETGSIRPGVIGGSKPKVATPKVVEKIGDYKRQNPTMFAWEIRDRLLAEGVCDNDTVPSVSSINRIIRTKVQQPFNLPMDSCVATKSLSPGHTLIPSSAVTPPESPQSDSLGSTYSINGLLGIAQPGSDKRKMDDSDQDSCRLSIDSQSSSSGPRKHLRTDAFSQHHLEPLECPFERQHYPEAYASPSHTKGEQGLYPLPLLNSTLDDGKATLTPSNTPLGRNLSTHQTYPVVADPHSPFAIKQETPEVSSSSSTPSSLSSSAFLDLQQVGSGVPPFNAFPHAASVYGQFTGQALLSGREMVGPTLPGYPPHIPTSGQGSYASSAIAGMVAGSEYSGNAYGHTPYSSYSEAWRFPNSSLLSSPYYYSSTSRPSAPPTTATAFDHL
Glutathione-S-transferase, sequence (Q26513 whole entry): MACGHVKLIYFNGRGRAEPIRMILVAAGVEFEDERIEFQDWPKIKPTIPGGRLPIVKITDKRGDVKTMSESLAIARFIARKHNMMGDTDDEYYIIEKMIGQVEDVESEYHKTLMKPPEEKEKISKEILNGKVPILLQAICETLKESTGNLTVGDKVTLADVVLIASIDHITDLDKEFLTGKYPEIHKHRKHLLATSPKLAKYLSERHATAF
Caspase-8, sequence (Q14790 217-374 limits assumed): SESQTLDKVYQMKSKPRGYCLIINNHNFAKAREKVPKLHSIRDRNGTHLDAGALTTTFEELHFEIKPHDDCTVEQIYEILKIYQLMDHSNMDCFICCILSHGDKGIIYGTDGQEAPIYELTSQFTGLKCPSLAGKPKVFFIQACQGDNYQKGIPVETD
Caspase-8, sequence (Q14790 385-479 limits assumed): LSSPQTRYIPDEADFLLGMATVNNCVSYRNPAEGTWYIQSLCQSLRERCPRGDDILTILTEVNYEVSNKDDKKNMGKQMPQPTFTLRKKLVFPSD
Caspase-7, sequence (P55210 24-198 limits assumed): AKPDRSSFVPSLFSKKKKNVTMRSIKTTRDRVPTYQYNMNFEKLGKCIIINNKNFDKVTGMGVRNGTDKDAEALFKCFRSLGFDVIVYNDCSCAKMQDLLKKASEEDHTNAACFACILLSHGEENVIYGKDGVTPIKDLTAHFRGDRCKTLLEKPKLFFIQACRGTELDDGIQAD
Caspase-7, sequence (P55210 207-303 limits assumed): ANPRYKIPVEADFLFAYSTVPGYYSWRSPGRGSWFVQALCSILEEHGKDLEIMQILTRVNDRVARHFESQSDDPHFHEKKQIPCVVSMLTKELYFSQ
Caspase-6, sequence (P55212 24-179 limits assumed): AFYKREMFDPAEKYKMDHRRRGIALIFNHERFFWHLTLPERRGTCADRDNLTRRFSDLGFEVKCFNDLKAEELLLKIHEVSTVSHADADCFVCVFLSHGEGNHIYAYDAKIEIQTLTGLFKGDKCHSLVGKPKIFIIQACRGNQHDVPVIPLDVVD
Caspase-6, sequence (P55212 194-293 limits assumed): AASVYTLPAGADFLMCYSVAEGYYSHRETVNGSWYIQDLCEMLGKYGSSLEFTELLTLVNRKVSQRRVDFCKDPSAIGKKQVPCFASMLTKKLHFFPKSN

With `Cc1ccc(OCCSc2nnc(-c3ccncc3)n2C)cc1` the IC50 (Bcl-2-like protein 10) was > 100 µM (inactive) and the IC50 [1] was > 100 µM (active).
In the case of `COc1ccccc1Cn1c(-c2ccccc2OC)nc2ccccc21`, the IC50 [2] is reported as > 100 µM (active) and the CC50 [3] is reported as > 40 µM (active).
For `O=C1CN(C(=O)COC(=O)c2ccc([N+](=O)[O-])s2)c2ccccc2N1`, the AC50 (Caspase-6) was 3.32 µM (active), the IC50 [4] was 47.9 µM (active) and the IC50 (Caspase-3) was 96.6 µM (active). For the same compound, the AC50 (Caspase-7) was 20 µM (active), the IC50 [5] was 92 µM (active) and the AC50 (Caspase-8) was 19.6 µM (active). The IC50 [6] was 52.9 µM (active) and the EC50 [7] was 17.4 µM (inactive).
In the case of `C[C@H]1CCCCO[C@H](CN(C)S(=O)(=O)c2ccc(Cl)cc2)[C@@H](C)CN([C@@H](C)CO)C(=O)c2cc(NS(=O)(=O)c3ccc(F)cc3)ccc2O1`, the AC50 [8] is reported as 58.4 µM (active) and the AC50 (Paired box protein Pax-8) is reported as 8.27 µM (active).
For `Cc1ccc(S(=O)(=O)Nc2ccc3c(c2)C(=O)N([C@H](C)CO)C[C@H](C)[C@H](CN(C)Cc2ccc(C(F)(F)F)cc2)OCCCC[C@H](C)O3)cc1`, the AC50 [9] was 24.7 µM (active), the AC50 [10] was 19.4 µM (active) and the AC50 [11] was 41.7 µM (active). The AC50 [12] was 46.2 µM (active) and the AC50 (Paired box protein Pax-8) was 9.98 µM (active).
For `Oc1ccc(CCNc2c3c(nc4ccccc24)CCCC3)cc1O`, the IC50 [13] was 3.6 µM (active).
For `COc1cccc(-c2ccc([C@@H]3[C@@H](CO)N4CCCCN(C(=O)Cc5ccncc5)C[C@@H]34)cc2)c1`, the AC50 [14] was > 26 µM (inactive).
